The source made the active and inactive calls. The calls are words filed in the database; no cut-off is given here.
Key:
Rattus norvegicus [1] = assay: Anti-inflammatory activity against Rattus norvegicus Albino Sprague-Dawley (rat) assessed as inhibition of carrageenan-induced paw edema at 50 mg/kg, ip administered 30 min prior to carrageenan injection measured after 4 hr by plethysmometer analysis; assay type: functional, organism-based; design: dose 50 mg/kg
Rattus norvegicus [2] = assay: Anti-inflammatory activity against Rattus norvegicus albino Sprague-Dawley (rat) assessed as inhibition of carrageenan-induced paw edema at 50 mg/kg, ip administered 30 min prior to carrageenan injection measured after 3 hr by plethysmometer analysis; assay type: functional, organism-based; design: dose 50 mg/kg
Rattus norvegicus [3] = assay: Anti-inflammatory activity against Rattus norvegicus Albino Sprague-Dawley (rat) assessed as inhibition of carrageenan-induced paw edema at 50 mg/kg, ip administered 30 min prior to carrageenan injection measured after 1 hr by plethysmometer analysis; assay type: functional; settings: for inhibition in vivo at 50 mg/kg: route intraperitoneal
Rattus norvegicus [4] = assay: Anti-inflammatory activity against Rattus norvegicus Albino Sprague-Dawley (rat) assessed as inhibition of carrageenan-induced paw edema at 50 mg/kg, ip administered 30 min prior to carrageenan injection measured after 2 hr by plethysmometer analysis; assay type: functional; settings: for inhibition in vivo at 50 mg/kg: route intraperitoneal
Rattus norvegicus [5] = assay: Anti-inflammatory activity against Rattus norvegicus Albino Sprague-Dawley (rat) assessed as inhibition of carrageenan-induced paw edema administered 30 min prior to carrageenan injection measured after 4 hr by plethysmometer analysis; assay type: functional
Rattus norvegicus [6] = assay: Anti-inflammatory activity against Rattus norvegicus Albino Sprague-Dawley (rat) assessed as inhibition of carrageenan-induced paw edema at 18 mg/kg, ip administered 30 min prior to carrageenan injection measured after 1 hr by plethysmometer analysis; assay type: functional; settings: route intraperitoneal
Mus musculus [7] = assay: Analgesic activity in Mus musculus Swiss (mouse) assessed as inhibition of acetic acid-induced writhing administered 1 hr prior to acetic acid injection measured after 5 min for 30 min; assay type: functional; settings: read-out: PD50
Mus musculus [8] = assay: Analgesic activity in Mus musculus Swiss (mouse) assessed as inhibition of acetic acid-induced writhing at 50 mg/kg, sc administered 1 hr prior to acetic acid injection measured after 5 min for 30 min; assay type: functional; settings: route subcutaneous

Structure (SMILES) | inhibition (Rattus norvegicus [1]) | inhibition (Rattus norvegicus [2]) | inhibition (Rattus norvegicus [3]) | inhibition in vivo at 50 mg/kg (Rattus norvegicus [4]) [%] | inhibition in vivo at 50 mg/kg (Rattus norvegicus [3]) [%] | inhibition (Rattus norvegicus [4]) | ED50 (Rattus norvegicus [5]) [mg/kg] | inhibition in vivo at 18 mg/kg (Rattus norvegicus [6]) [%] | ED50 (Mus musculus [7]) [mg/kg] | inhibition in vivo at 50 mg/kg (Mus musculus [8]) [%]
Nc1nc(-c2ccc(-n3c(-c4ccncc4)nc4ccc(Br)cc4c3=O)cc2)cs1 | Active | Active | Active | 62.8 |  |  |  |  |  | 
COc1ccc(C2CC(c3ccc(-n4c(-c5ccncc5)nc5ccc(Br)cc5c4=O)cc3)=NN2C(C)=O)cc1 (centres undefined) | Active | Active |  |  | 64.5 | Active |  |  |  | 
O=C(/C=C/c1ccc([N+](=O)[O-])cc1)c1ccc(-n2c(-c3ccncc3)nc3ccc(Br)cc3c2=O)cc1 | Active | Active | Active | 70.5 |  |  | 22.3 |  |  | 
O=C(/C=C/c1ccc(Cl)cc1)c1ccc(-n2c(-c3ccncc3)nc3ccc(Br)cc3c2=O)cc1 | Active | Active |  |  | 73.8 | Active |  |  |  | 
COc1ccc2c(c1)c(CC(=O)O)c(C)n2C(=O)c1ccc(Cl)cc1 [INDOMETHACIN] |  |  |  |  |  |  |  | 62.9 |  | 
O=c1c2cc(Br)ccc2nc(-c2ccncc2)n1-c1ccc(-c2csc(O)n2)cc1 | Active | Active | Active | 67.3 |  |  |  |  | 15 | 75.7
O=C1N=C(c2ccc(-n3c(-c4ccncc4)nc4ccc(Br)cc4c3=O)cc2)CC(c2ccc(Cl)cc2)N1 (centres undefined) | Active | Active |  |  | 62.3 | Active |  |  |  | 75.4

Reference: ChEMBL document CHEMBL3046470, “Design, synthesis, anti-inflammatory, analgesic screening, and molecular docking of some novel 2-pyridyl (3H)-quinazolin-4-one derivatives” (2013)
